Columns and labels:
Cyperus iria = assay: Preemergence weed control under flooded paddy conditions, CYPIR (Rice Flatsedge); assay type: in vivo; conditions: flooded paddy, rated three to four weeks after treatment; for herbicidal effect rating, CYPIR: meaning of each grade not given here
[1] = test system: Monochoria vaginalis, Presl.; assay: Preemergence weed control under flooded paddy conditions, MOOVA (Monochoria); assay type: in vivo; conditions: flooded paddy, rated three to four weeks after treatment; for herbicidal effect rating, MOOVA: meaning of each grade not given here
[2] = test system: Oryza sativa, (L.) Tebonnet; assay: Rice tolerance to post-transplant applications under flooded paddy conditions (Example 187), ORYSAT (Rice, Tebonnet); conditions: rated three to four weeks after treatment
Sagittaria pygmaea, L. = assay: Preemergence weed control under flooded paddy conditions, SAGPY (Arrowhead (Pygmaea)); assay type: in vivo; conditions: flooded paddy, rated three to four weeks after treatment; for herbicidal effect rating, SAGPY: meaning of each grade not given here
[3] = test system: Echinochloa oryzoides (Ard.) Fritsch.; assay: Preemergence weed control under flooded paddy conditions, ECHORC (Watergrass (Calif.)); assay type: in vivo; conditions: flooded paddy, rated three to four weeks after treatment; for herbicidal effect rating, ECHORC: meaning of each grade not given here
[4] = test system: Cyperus serotinus, Rottb.; assay: Preemergence weed control under flooded paddy conditions, CYPSE (Flatsedge); assay type: in vivo; conditions: rated three to four weeks after treatment; for herbicidal effect rating, CYPSE: meaning of each grade not given here
[5] = Rate 0.0320 kg/ha, preemergence
[6] = Rate 0.0620 kg/ha, preemergence
[7] = Rate 0.1250 kg/ha, preemergence
[8] = Rate 0.2500 kg/ha, preemergence
[9] = Rate 0.5000 kg/ha, preemergence
[10] = Rate 0.0320 kg/ha, preemergence weeds
[11] = Rate 0.0620 kg/ha, preemergence weeds
[12] = Rate 0.1250 kg/ha, preemergence weeds
[13] = Rate 0.2500 kg/ha, preemergence weeds

Cn1c(C(F)(F)F)cc(=O)n(-c2ccc3snc(CS(=O)(=O)CC(=O)O)c3c2)c1=O [Example 282, Acetic acid, {{{5-[3,6-dihydro-3-methyl-2,6-dioxo-4-(trifluoromethyl)-1(2H)-pyrimidinyl]-1,2-benzisothiazol-3-yl}methyl}sulfonyl}-]
CYPIR herbicidal effect rating (Cyperus iria; [5]): 4.0 | CYPIR herbicidal effect rating (Cyperus iria; [6]): 8.0 | CYPIR herbicidal effect rating (Cyperus iria; [7]): 8.0 | CYPIR herbicidal effect rating (Cyperus iria; [8]): 8.0 | CYPIR herbicidal effect rating (Cyperus iria; [9]): 9.0 | MOOVA herbicidal effect rating [1, 5]: 6.0 | MOOVA herbicidal effect rating [1, 6]: 9.0 | MOOVA herbicidal effect rating [1, 7]: 9.0 | MOOVA herbicidal effect rating [1, 8]: 9.0 | MOOVA herbicidal effect rating [1, 9]: 9.0 | ORYSAT herbicidal effect rating ([2]; Rate 0.0320 kg/ha): 2.0 | ORYSAT herbicidal effect rating ([2]; Rate 0.0620 kg/ha): 3.0 | ORYSAT herbicidal effect rating ([2]; Rate 0.1250 kg/ha): 4.0 | ORYSAT herbicidal effect rating ([2]; Rate 0.2500 kg/ha): 4.0 | ORYSAT herbicidal effect rating ([2]; Rate 0.5000 kg/ha): 0.0 | SAGPY herbicidal effect rating (Sagittaria pygmaea, L.; [5]): 0.0 | SAGPY herbicidal effect rating (Sagittaria pygmaea, L.; [6]): 0.0 | SAGPY herbicidal effect rating (Sagittaria pygmaea, L.; [7]): 0.0 | SAGPY herbicidal effect rating (Sagittaria pygmaea, L.; [8]): 0.0 | SAGPY herbicidal effect rating (Sagittaria pygmaea, L.; [9]): 0.0 | ECHORC herbicidal effect rating [3, 5]: 0.0 | ECHORC herbicidal effect rating [3, 6]: 0.0 | ECHORC herbicidal effect rating [3, 7]: 1.9 | ECHORC herbicidal effect rating [3, 8]: 0.0 | ECHORC herbicidal effect rating [3, 9]: 0.0 | CYPSE herbicidal effect rating [4, 5]: 0.0 | CYPSE herbicidal effect rating [4, 6]: 0.0 | CYPSE herbicidal effect rating [4, 7]: 0.0 | CYPSE herbicidal effect rating [4, 8]: 0.0 | CYPSE herbicidal effect rating [4, 9]: 0.0

COC(=O)/C=C/c1nsc2ccc(-n3c(=O)cc(C(F)(F)F)n(C)c3=O)cc12 [Example 279, 1,2-Benzisothiazole-3-acrylic acid, 5-[3,6-dihydro-3-methyl-2,6-dioxo-4-(trifluoromethyl)-1(2H)-pyrimidinyl]-, methyl ester, (E)-]
CYPIR herbicidal effect rating (Cyperus iria; [5]): 0.0 | CYPIR herbicidal effect rating (Cyperus iria; [6]): 0.0 | CYPIR herbicidal effect rating (Cyperus iria; [7]): 2.0 | CYPIR herbicidal effect rating (Cyperus iria; [8]): 6.0 | CYPIR herbicidal effect rating (Cyperus iria; [9]): 9.0 | MOOVA herbicidal effect rating [1, 7]: 8.0 | MOOVA herbicidal effect rating [1, 8]: 9.0 | MOOVA herbicidal effect rating [1, 9]: 9.0 | ORYSAT herbicidal effect rating ([2]; Rate 0.0320 kg/ha): 2.0 | ORYSAT herbicidal effect rating ([2]; Rate 0.0620 kg/ha): 3.0 | ORYSAT herbicidal effect rating ([2]; Rate 0.1250 kg/ha): 4.0 | ORYSAT herbicidal effect rating ([2]; Rate 0.2500 kg/ha): 4.0 | ORYSAT herbicidal effect rating ([2]; Rate 0.5000 kg/ha): 6.0 | SAGPY herbicidal effect rating (Sagittaria pygmaea, L.; [5]): 0.0 | SAGPY herbicidal effect rating (Sagittaria pygmaea, L.; [6]): 0.0 | SAGPY herbicidal effect rating (Sagittaria pygmaea, L.; [7]): 0.0 | SAGPY herbicidal effect rating (Sagittaria pygmaea, L.; [8]): 4.0 | SAGPY herbicidal effect rating (Sagittaria pygmaea, L.; [9]): 9.0 | ECHORC herbicidal effect rating [3, 5]: 0.0 | ECHORC herbicidal effect rating [3, 6]: 5.7 | ECHORC herbicidal effect rating [3, 7]: 6.1 | ECHORC herbicidal effect rating [3, 8]: 6.0 | ECHORC herbicidal effect rating [3, 9]: 7.0 | CYPSE herbicidal effect rating [4, 5]: 0.0 | CYPSE herbicidal effect rating [4, 6]: 0.0 | CYPSE herbicidal effect rating [4, 7]: 0.0 | CYPSE herbicidal effect rating [4, 9]: 5.0

CCCCS(=O)(=O)NC(=O)COc1ccc(C)cc1-c1nsc2ccc(-n3c(=O)cc(C(F)(F)F)n(C)c3=O)cc12 [Example 573, Acetamide, N-(butylsulfonyl)-2-{{2-{5-[3,6-dihydro-3-methyl-2,6-dioxo-4-(trifluoromethyl)-1(2H)-pyrimidinyl]-1,2-benzisothiazol-3-yl}-p-tolyl}oxy}-]
herbicidal effect rating, CYPIR (Cyperus iria; [5]): 0.0 | herbicidal effect rating, CYPIR (Cyperus iria; [6]): 3.0 | herbicidal effect rating, CYPIR (Cyperus iria; [7]): 5.0 | herbicidal effect rating, CYPIR (Cyperus iria; [8]): 5.0 | herbicidal effect rating, MOOVA [1, 5]: 9.0 | herbicidal effect rating, MOOVA [1, 6]: 9.0 | herbicidal effect rating, MOOVA [1, 7]: 9.0 | herbicidal effect rating, MOOVA [1, 8]: 9.0 | herbicidal effect rating ORYSAT ([2]; Rate 0.0320 kg/ha): 0.0 | herbicidal effect rating ORYSAT ([2]; Rate 0.0620 kg/ha): 0.0 | herbicidal effect rating ORYSAT ([2]; Rate 0.1250 kg/ha): 0.0 | herbicidal effect rating ORYSAT ([2]; Rate 0.2500 kg/ha): 1.0 | herbicidal effect rating, SAGPY (Sagittaria pygmaea, L.; [5]): 0.0 | herbicidal effect rating, SAGPY (Sagittaria pygmaea, L.; [6]): 0.0 | herbicidal effect rating, SAGPY (Sagittaria pygmaea, L.; [7]): 0.0 | herbicidal effect rating, SAGPY (Sagittaria pygmaea, L.; [8]): 2.0 | herbicidal effect rating, ECHORC [3, 5]: 6.0 | herbicidal effect rating, ECHORC [3, 6]: 7.0 | herbicidal effect rating, ECHORC [3, 7]: 7.0 | herbicidal effect rating, ECHORC [3, 8]: 7.0 | herbicidal effect rating, CYPSE [4, 5]: 0.0 | herbicidal effect rating, CYPSE [4, 6]: 0.0 | herbicidal effect rating, CYPSE [4, 7]: 0.0 | herbicidal effect rating, CYPSE [4, 8]: 4.0

Cn1c(C(F)(F)F)cc(=O)n(-c2ccc3snc(C(=O)O)c3c2)c1=O [Example 315, 1,2-Benzisothiazole-3-carboxylic acid, 5-[3,6-dihydro-3-methyl-2,6-dioxo-4-(trifluoromethyl)-1(2H)-pyrimidinyl]-]
herbicidal effect rating, CYPIR (Cyperus iria; [10]): 0.0 | herbicidal effect rating, CYPIR (Cyperus iria; [11]): 0.0 | herbicidal effect rating, CYPIR (Cyperus iria; [12]): 5.0 | herbicidal effect rating, CYPIR (Cyperus iria; [13]): 9.0 | herbicidal effect rating, MOOVA [1, 10]: 9.0 | herbicidal effect rating, MOOVA [1, 11]: 9.0 | herbicidal effect rating, MOOVA [1, 12]: 9.0 | herbicidal effect rating, MOOVA [1, 13]: 9.0 | herbicidal effect rating ORYSAT ([2]; Rate 0.0320 kg/ha): 0.0 | herbicidal effect rating ORYSAT ([2]; Rate 0.0620 kg/ha): 0.0 | herbicidal effect rating ORYSAT ([2]; Rate 0.1250 kg/ha): 0.0 | herbicidal effect rating ORYSAT ([2]; Rate 0.2500 kg/ha): 2.0 | herbicidal effect rating, SAGPY (Sagittaria pygmaea, L.; [10]): 0.0 | herbicidal effect rating, SAGPY (Sagittaria pygmaea, L.; [11]): 0.0 | herbicidal effect rating, SAGPY (Sagittaria pygmaea, L.; [12]): 3.0 | herbicidal effect rating, SAGPY (Sagittaria pygmaea, L.; [13]): 4.0 | herbicidal effect rating, ECHORC [3, 10]: 0.0 | herbicidal effect rating, ECHORC [3, 11]: 0.0 | herbicidal effect rating, ECHORC [3, 12]: 0.0 | herbicidal effect rating, ECHORC [3, 13]: 3.0 | herbicidal effect rating, CYPSE [4, 10]: 0.0 | herbicidal effect rating, CYPSE [4, 11]: 0.0 | herbicidal effect rating, CYPSE [4, 12]: 3.0 | herbicidal effect rating, CYPSE [4, 13]: 3.0

Cc1ccc(OC(C)(C)C(=O)OC(C)(C)C)c(-c2nsc3ccc(-n4c(=O)cc(C(F)(F)F)n(C)c4=O)cc23)c1 [Example 514, Propionic acid, 2-{{2-{5-[3,6-dihydro-3-methyl-2,6-dioxo-4-(trifluoromethyl)-1(2H)-pyrimidinyl]-1,2-benzisothiazol-3-yl}-p-tolyl}oxy}-2-methyl-, tert-butyl ester]
CYPIR herbicidal rating (Cyperus iria; 0.0320 kg/ha, preemergence): 0.0 | CYPIR herbicidal rating (Cyperus iria; 0.0620 kg/ha, preemergence): 0.0 | CYPIR herbicidal rating (Cyperus iria; 0.1250 kg/ha, preemergence): 2.0 | CYPIR herbicidal rating (Cyperus iria; 0.2500 kg/ha, preemergence): 7.0 | MOOVA herbicidal rating ([1]; 0.0320 kg/ha, preemergence): 9.0 | MOOVA herbicidal rating ([1]; 0.0620 kg/ha, preemergence): 9.0 | MOOVA herbicidal rating ([1]; 0.1250 kg/ha, preemergence): 9.0 | MOOVA herbicidal rating ([1]; 0.2500 kg/ha, preemergence): 9.0 | ORYSAT herbicidal rating (rice tolerance) ([2]; 0.0320 kg/ha): 2.0 | ORYSAT herbicidal rating (rice tolerance) ([2]; 0.0620 kg/ha): 2.0 | ORYSAT herbicidal rating (rice tolerance) ([2]; 0.1250 kg/ha): 1.0 | ORYSAT herbicidal rating (rice tolerance) ([2]; 0.2500 kg/ha): 4.0 | SAGPY herbicidal rating (Sagittaria pygmaea, L.; 0.0320 kg/ha, preemergence): 0.0 | SAGPY herbicidal rating (Sagittaria pygmaea, L.; 0.0620 kg/ha, preemergence): 0.0 | SAGPY herbicidal rating (Sagittaria pygmaea, L.; 0.1250 kg/ha, preemergence): 0.0 | SAGPY herbicidal rating (Sagittaria pygmaea, L.; 0.2500 kg/ha, preemergence): 0.0 | ECHORC herbicidal rating ([3]; 0.0320 kg/ha, preemergence): 0.0 | ECHORC herbicidal rating ([3]; 0.0620 kg/ha, preemergence): 1.0 | ECHORC herbicidal rating ([3]; 0.1250 kg/ha, preemergence): 2.0 | ECHORC herbicidal rating ([3]; 0.2500 kg/ha, preemergence): 8.0 | CYPSE herbicidal rating ([4]; 0.0320 kg/ha, preemergence): 0.0 | CYPSE herbicidal rating ([4]; 0.0620 kg/ha, preemergence): 0.0 | CYPSE herbicidal rating ([4]; 0.1250 kg/ha, preemergence): 0.0 | CYPSE herbicidal rating ([4]; 0.2500 kg/ha, preemergence): 0.0

CCCCS(=O)(=O)NC(=O)COc1ccccc1-c1nsc2ccc(-n3c(=O)cc(C(F)(F)F)n(C)c3=O)cc12 [Example 574, Acetamide, N-(butylsulfonyl)-2-{o-{5-[3,6-dihydro-3-methyl-2,6-dioxo-4-(trifluoromethyl)-1(2H)-pyrimidinyl]-1,2-benzisothiazol-3-yl}-phenoxy}-]
herbicidal effect rating, CYPIR (Cyperus iria; [5]): 2.0 | herbicidal effect rating, CYPIR (Cyperus iria; [6]): 5.5 | herbicidal effect rating, CYPIR (Cyperus iria; [7]): 6.0 | herbicidal effect rating, CYPIR (Cyperus iria; [8]): 7.0 | herbicidal effect rating, MOOVA [1, 5]: 9.0 | herbicidal effect rating, MOOVA [1, 6]: 9.0 | herbicidal effect rating, MOOVA [1, 7]: 9.0 | herbicidal effect rating, MOOVA [1, 8]: 9.0 | herbicidal effect rating ORYSAT ([2]; Rate 0.0320 kg/ha): 3.0 | herbicidal effect rating ORYSAT ([2]; Rate 0.0620 kg/ha): 4.5 | herbicidal effect rating ORYSAT ([2]; Rate 0.1250 kg/ha): 6.5 | herbicidal effect rating ORYSAT ([2]; Rate 0.2500 kg/ha): 8.0 | herbicidal effect rating, SAGPY (Sagittaria pygmaea, L.; [5]): 0.0 | herbicidal effect rating, SAGPY (Sagittaria pygmaea, L.; [6]): 1.0 | herbicidal effect rating, SAGPY (Sagittaria pygmaea, L.; [7]): 2.0 | herbicidal effect rating, SAGPY (Sagittaria pygmaea, L.; [8]): 6.0 | herbicidal effect rating, ECHORC [3, 5]: 4.0 | herbicidal effect rating, ECHORC [3, 6]: 6.5 | herbicidal effect rating, ECHORC [3, 7]: 8.5 | herbicidal effect rating, ECHORC [3, 8]: 9.0 | herbicidal effect rating, CYPSE [4, 5]: 0.0 | herbicidal effect rating, CYPSE [4, 6]: 2.0 | herbicidal effect rating, CYPSE [4, 7]: 4.5 | herbicidal effect rating, CYPSE [4, 8]: 6.5

Source: patent publication EP0908457B1, “3-(1,2-benzisothiazol- and isoxazol-5-Y1)-2,4(1H,3H)-pyrimidinedione or thione and 3-(1,2-benzisothiazol- and isoxazol-5-y1)-4(3H)-pyrimidinone or thione herbicidal agents” (BASF AKTIENGESELLSCHAFT, priority 1997, dated 1999)
